# Earlier results as cited in patent US20210236583A1, “Targeting the renin-angiotensin system for treatment of environment-and pathogen-induced lung injury” (priority 2020, published 2021).
# Tested on: mice
# Settings: direct injection of recombinant ACE2 protein
substance,measurement,value
"recombinant ACE2 protein: recombinant ACE2 protein injected directly, from the literature (Imai et al., 2005)",protection from severe acute lung injury,protect mice from severe acute lung injury
